The results in this text go back to paper PMC7758422, “Design, Synthesis, and Antitumor Activities Study of Stapled A4K14-Citropin 1.1 Peptides” (Frontiers in Chemistry, 2020).

Series [1] concerns human lung tumor cell line A549. The class given is cell-based. The text has this: (§1) Cell Culture and Cell Viability Assay
(§2) The human prostate cancer cell line C4-2B was kindly provided and authenticated by Dr. Leland Chung (Cedars-Sinai Medical Center, Los Angeles, CA, USA). The human lung tumor cell line A549, the human breast tumor cell line MCF-7, and glioma cell line U87 were obtained from Shanghai Cellular Institute of Chinese Academy of Sciences (Shanghai, China). All cell lines were maintained in Dulbecco's modified Eagle's medium (DMEM) involving 10% fetal bovine serum (FBS) and 1% penicillin–streptomycin (PS) (complete DMEM) and was cultured at 37°C with humidified atmosphere of 5% CO2. Cell viability was examined using the cell counting kit (CCK-8) in accordance with manufacturer's protocol. Cells were seeded in 96-well culture plates at a density of 3 ×10^3 cells/well at 37°C for 24 h. Next day, cells were treated without or with various concentrations (0.39, 0.78, 1.56, 3.125, 6.25, 12.5, 25, and 50 μM) of peptides for 96 h after which 10 μl of CCK-8 reagent was added to each well and incubated for further 2 h at 37°C. The optical density (OD) was then measured at a wavelength of 450 nm on a Cell Imaging Multi-Mode Reader (BioTek, Vermont, USA), and the average OD values for each sample were analyzed using Image-J software (NIH, Bethesda, MD, USA). The half maximal inhibitory concentration (IC50) was calculated by GraphPad Prism v7.0 software (San Diego, CA, USA).

The test system of series [2] is glioma cell line U87. The class given is cell-based.
Description: as §1, §2

Series [3] relates to human prostate cancer cell line C4-2B. The class given is cell-based.
Description: as §1, §2

Series [4] deals with human breast tumor cell line MCF-7. The class given is cell-based.
Description: as §1, §2

Series [5] has as its system α-chymotrypsin. The series can be described thus: Protease stability experiment (α-chymotrypsin-mediated degradation). The class given is in vitro ADME. The following applies: for remaining at 12 h, 25 µM: read-out: peptide remaining intact after 12 h of protease exposure; for half-life at 25 µM: α-chymotrypsin 0.5 ng/μl in PBS pH 7.4 with 2 mM CaCl2, 50 μl peptide 1 mM in DMSO + 1,950 μl enzyme, 37°C, 0, 1, 2, 4, 8, 12 h, residual peptide by HPLC, read-out: t1/2 (h), hydrolysis enzyme degradation half-life (converted). Here is the method:
Protease Stability Experiment
Fifty microliters peptides in dimethyl sulfoxide (DMSO) (1 mM) and 1,950 μl α-chymotrypsin in phosphate-buffered saline (PBS) (0.5 ng/μl, pH 7.4, containing 2 mM CaCl2) were mixed and incubated at 37°C. After 0, 1, 2, 4, 8, and 12 h, the percent residual peptide was monitored by HPLC.

Series [6] in a line: on-resin all-hydrocarbon stapling by ring-closing metathesis of S5/S5 (i,i+4) or R8/S5 (i,i+7), Grubbs first-generation catalyst (0.45 mmol per 0.15 mmol resin, 3 equiv), then TFA/TIPS/phenol/H2O cleavage and RP-HPLC. The conditions noted are these: the molecule shown is the open-chain precursor, 25.0 °C, 4.0 h, 36 steps.
The mark [7] stands for this setting: CCK-8, 96 h treatment, 0.39-50 μM, OD 450 nm, read-out: IC50 (μM) A549.
Setting [8] is: CCK-8, 96 h treatment, 0.39-50 μM, OD 450 nm, read-out: IC50 (μM) U87.
[9] abbreviates: CCK-8, 96 h treatment, 0.39-50 μM, OD 450 nm, read-out: IC50 (μM) C4-2B.
[10] abbreviates: CCK-8, 96 h treatment, 0.39-50 μM, OD 450 nm, read-out: IC50 (μM) MCF-7.
Setting [11] is: α-chymotrypsin 0.5 ng/μl in PBS pH 7.4 with 2 mM CaCl2, 37°C, 12 h, HPLC.
[12] abbreviates: 21-membered ring, 1,2-dichloroethane.

Where two headings read alike, the source gives them in different places. Bridge positions count the residues as written; N and C are the ends. Square brackets hold non-standard residues; d marks the D form. Peptide text beside a SMILES is read from it. R8 = C=CCCCCCC[C@@](C)(N)C(=O)O; S5 = C=CCCC[C@](C)(N)C(=O)O

Broadly, the IC50 is the concentration needed to halve the response being measured. One may read the share remaining as what is left of the initial amount, in per cent. Consider `CC[C@H](C)[C@H](NC(=O)[C@@H](NC(=O)[C@H](CO)NC(=O)[C@H](C)NC(=O)[C@@H](NC(=O)[C@H](CCCCN)NC(=O)[C@H](CCCCN)NC(=O)[C@]1(C)CCCC=CCCC[C@](C)(NC(=O)CNC(C)=O)C(=O)N[C@@H](Cc2ccccc2)C(=O)N[C@@H](C)C(=O)N[C@@H](C(C)C)C(=O)N1)C(C)C)C(C)C)C(=O)N[C@@H](CCCCN)C(=O)NCC(=O)N[C@@H](CC(C)C)C(N)=O` [A4K14-citropin1.1-1] (Ac-G[S5]FAV[S5]KKVASVIKGL-NH2; staple 2-6), for which the 50% inhibitory concentration (IC50) was determined as 12.5 µM in series [1] (setting [7]), 11.9 µM in series [2] (setting [8]), 8.94 µM in series [3] (setting [9]) and 11.3 µM in series [4] (setting [10]). Besides, the share remaining at 12 h, 25 µM in series [5] (setting [11]) is over 85%. Besides, the half-life at 25 µM in series [5] is over 10 h.
Consider `C=CCCC[C@](C)(NC(=O)CNC(C)=O)C(=O)N[C@@H](Cc1ccccc1)C(=O)N[C@@H](C)C(=O)N[C@H](C(=O)N[C@@](C)(CCCC=C)C(=O)N[C@@H](CCCCNC(=O)OC(C)(C)C)C(=O)N[C@@H](CCCCNC(=O)OC(C)(C)C)C(=O)N[C@H](C(=O)N[C@@H](C)C(=O)N[C@@H](COC(C)(C)C)C(=O)N[C@H](C(=O)N[C@H](C(=O)N[C@@H](CCCCNC(=O)OC(C)(C)C)C(=O)NCC(=O)N[C@@H](CC(C)C)C(N)=O)[C@@H](C)CC)C(C)C)C(C)C)C(C)C`, for which the ring closure, overall yield in series [6] (setting [12]) came to 63 % yield.
Turning to `CC[C@H](C)[C@H](NC(=O)[C@@H](NC(=O)[C@H](C)NC(=O)[C@H](Cc1ccccc1)NC(=O)[C@H](CC(C)C)NC(=O)CNC(C)=O)C(C)C)C(=O)N[C@@H](CCCCN)C(=O)N[C@@H](CCCCN)C(=O)N[C@@]1(C)CCCC=CCCC[C@@](C)(C(=O)N[C@@H](CCCCN)C(=O)NCC(=O)N[C@@H](CC(C)C)C(N)=O)NC(=O)[C@H](C(C)C)NC(=O)[C@H](CO)NC(=O)[C@H](C)NC1=O` [A4K14-citropin1.1-4] (Ac-GLFAVIKK[S5]ASV[S5]KGL-NH2; staple 9-13), the concentration for half-maximal inhibition (IC50) was determined as 10.5 µM in series [1] (setting [7]), 7.28 µM in series [2] (setting [8]), 8.9 µM in series [3] (setting [9]) and 10.5 µM in series [4] (setting [10]). Further, the share remaining at 12 h, 25 µM in series [5] (setting [11]) was over 85%. The half-life at 25 µM in series [5] is over 10 h.
For the molecule `C=CCCCCCC[C@@](C)(NC(=O)CNC(C)=O)C(=O)N[C@@H](Cc1ccccc1)C(=O)N[C@@H](C)C(=O)N[C@H](C(=O)N[C@H](C(=O)N[C@@H](CCCCNC(=O)OC(C)(C)C)C(=O)N[C@@H](CCCCNC(=O)OC(C)(C)C)C(=O)N[C@@](C)(CCCC=C)C(=O)N[C@@H](C)C(=O)N[C@@H](COC(C)(C)C)C(=O)N[C@H](C(=O)N[C@H](C(=O)N[C@@H](CCCCNC(=O)OC(C)(C)C)C(=O)NCC(=O)N[C@@H](CC(C)C)C(N)=O)[C@@H](C)CC)C(C)C)[C@@H](C)CC)C(C)C`, the ring closure, overall yield in series [6] (33-membered ring, 1,2-dichloroethane) was 63 % yield.
In the case of “Ac-GLFAVIKKVASVIKGL-NH2 [A4K14-citropin1.1, reference compound]”, the IC50 was 15 µM in series [1] (setting [7]), 14.8 µM in series [2] (setting [8]), 29.1 µM in series [3] (setting [9]) and 14.2 µM in series [4] (setting [10]). Moreover, the “peptide remaining intact after 12 h of protease exposure” value in series [5] (setting [11]) was “degraded completely”. For the same molecule, the half-life at 25 µM in series [5] was 0.63 h.
For `CC[C@H](C)[C@@H]1NC(=O)[C@H](C(C)C)NC(=O)[C@H](C)NC(=O)[C@H](Cc2ccccc2)NC(=O)[C@](C)(NC(=O)CNC(C)=O)CCCCCCC=CCCC[C@@](C)(C(=O)N[C@@H](C)C(=O)N[C@@H](CO)C(=O)N[C@H](C(=O)N[C@H](C(=O)N[C@@H](CCCCN)C(=O)NCC(=O)N[C@@H](CC(C)C)C(N)=O)[C@@H](C)CC)C(C)C)NC(=O)[C@H](CCCCN)NC(=O)[C@H](CCCCN)NC1=O` [A4K14-citropin1.1-6] (Ac-G[R8]FAVIKK[S5]ASVIKGL-NH2; staple 2-9), the IC50 in series [1] (setting [7]) came to 30.2 µM; in series [2] (setting [8]), 34.5 µM; in series [3] (setting [9]), 35.8 µM; in series [4] (setting [10]), 23.8 µM. For the same molecule, in series [5], the half-life at 25 µM is 0.57 h.
Take `CC[C@H](C)[C@H](NC(=O)[C@@H](NC(=O)[C@H](CO)NC(=O)[C@]1(C)CCCC=CCCC[C@](C)(NC(=O)[C@@H](NC(=O)[C@H](C)NC(=O)[C@H](Cc2ccccc2)NC(=O)[C@H](CC(C)C)NC(=O)CNC(C)=O)C(C)C)C(=O)N[C@@H](CCCCN)C(=O)N[C@@H](CCCCN)C(=O)N[C@@H](C(C)C)C(=O)N1)C(C)C)C(=O)N[C@@H](CCCCN)C(=O)NCC(=O)N[C@@H](CC(C)C)C(N)=O` [A4K14-citropin1.1-3] (Ac-GLFAV[S5]KKV[S5]SVIKGL-NH2; staple 6-10): the IC50 in series [1] (setting [7]) came out at 12.1 µM; in series [2] (setting [8]), 11.9 µM; in series [3] (setting [9]), 17.9 µM; in series [4] (setting [10]), 11.9 µM. In addition, in series [5], the half-life at 25 µM is 0.61 h.
As to `C=CCCC[C@](C)(NC(=O)[C@H](C)NC(=O)[C@@H](NC(=O)[C@H](CCCCNC(=O)OC(C)(C)C)NC(=O)[C@H](CCCCNC(=O)OC(C)(C)C)NC(=O)[C@@H](NC(=O)[C@@H](NC(=O)[C@H](C)NC(=O)[C@H](Cc1ccccc1)NC(=O)[C@H](CC(C)C)NC(=O)CNC(C)=O)C(C)C)[C@@H](C)CC)C(C)C)C(=O)N[C@H](C(=O)N[C@H](C(=O)N[C@@H](CCCCNC(=O)OC(C)(C)C)C(=O)N[C@@](C)(CCCC=C)C(=O)N[C@@H](CC(C)C)C(N)=O)[C@@H](C)CC)C(C)C`, in series [6] (setting [12]), the ring closure, overall yield is 62 % yield.
`CC[C@H](C)[C@H](NC(=O)[C@@H](NC(=O)[C@H](C)NC(=O)[C@H](Cc1ccccc1)NC(=O)[C@H](CC(C)C)NC(=O)CNC(C)=O)C(C)C)C(=O)N[C@@H](CCCCN)C(=O)N[C@@H](CCCCN)C(=O)N[C@H](C(=O)N[C@@H](C)C(=O)N[C@@]1(C)CCCC=CCCC[C@@](C)(C(=O)N[C@@H](CC(C)C)C(N)=O)NC(=O)[C@H](CCCCN)NC(=O)[C@H]([C@@H](C)CC)NC(=O)[C@H](C(C)C)NC1=O)C(C)C` [A4K14-citropin1.1-5] (Ac-GLFAVIKKVA[S5]VIK[S5]L-NH2; staple 11-15): the IC50 in series [1] (setting [7]) stood at 9.9 µM; in series [2] (setting [8]), 8.23 µM; in series [3] (setting [9]), 11.9 µM; in series [4] (setting [10]), 12.4 µM. Also, the half-life at 25 µM in series [5] was 1.83 h.
On to `CC(=O)NCC(=O)N[C@@H](CC(C)C)C(=O)N[C@@H](Cc1ccccc1)C(=O)N[C@@H](C)C(=O)N[C@H](C(=O)N[C@]1(C)CCCCCCC=CCCC[C@@](C)(C(=O)N[C@@H](CCCCN)C(=O)NCC(=O)N[C@@H](CC(C)C)C(N)=O)NC(=O)[C@H](C(C)C)NC(=O)[C@H](CO)NC(=O)[C@H](C)NC(=O)[C@H](C(C)C)NC(=O)[C@H](CCCCN)NC(=O)[C@H](CCCCN)NC1=O)C(C)C` [A4K14-citropin1.1-7] (Ac-GLFAV[R8]KKVASV[S5]KGL-NH2; staple 6-13), for which the IC50 came to 16.4 µM in series [1] (setting [7]), 14.7 µM in series [2] (setting [8]), 10.2 µM in series [3] (setting [9]) and 12.1 µM in series [4] (setting [10]). Moreover, the half-life at 25 µM in series [5] is 0.58 h.
On to `CC[C@H](C)[C@H](NC(=O)[C@@H](NC(=O)[C@H](CO)NC(=O)[C@H](C)NC(=O)[C@]1(C)CCCC=CCCC[C@](C)(NC(=O)[C@H](C)NC(=O)[C@H](Cc2ccccc2)NC(=O)[C@H](CC(C)C)NC(=O)CNC(C)=O)C(=O)N[C@@H]([C@@H](C)CC)C(=O)N[C@@H](CCCCN)C(=O)N[C@@H](CCCCN)C(=O)N1)C(C)C)C(=O)N[C@@H](CCCCN)C(=O)NCC(=O)N[C@@H](CC(C)C)C(N)=O` [A4K14-citropin1.1-2] (Ac-GLFA[S5]IKK[S5]ASVIKGL-NH2; staple 5-9), for which the IC50 in series [1] (96 h) was determined as 12.6 µM; in series [2] (96 h), 14.8 µM; in series [3] (96 h), 10.1 µM; in series [4] (96 h) it was 12.7 µM. Besides, the half-life at 25 µM in series [5] is 1.72 h.
